Numbered stars: 1 amine (or outer) side, 2 acyl side, 3 side chain; on linkers, the order of the positions; unused ones are H or OH. Bridge positions count the residues as written; N and C are the ends. Square brackets hold non-standard residues; d marks the D form. Peptide text beside a SMILES is read from it. * marks the point of attachment. 2Thenoyl(5-Cl) = O=C(c1ccc(Cl)s1)*; Cysteamide = C(CS[*:3])N[*:1]; Mpa = O=C(O)CCS
Target: T1, thrombin (Homo sapiens, UniProt P00734)
T1 construct: consists of two polypeptide chains of 36 (light chain) and 259 amino acid
Experiment: Thrombin inhibition screen of crude macrocycle reactions (residual thrombin activity, fluorogenic substrate Z-Gly-Gly-Arg-AMC)
Type: biochemical
Settings: 10 µM macrocycle concentration; for percent residual thrombin activity: crude reactions, Library 1a-l, scaffold AA1-AA2-AA3 combined with 1-16 or '-'; for % thrombin activity, Original screen / % thrombin activity, Repeat screen: macrocycles containing acid 14, crude reaction; for % thrombin activity, Repeat screen: replicate reaction and screen
Experimental: As a proof-of-concept, we screened the macrocycle library for inhibitors against thrombin, which is the central blood coagulation protease and an important therapeutic target. We conducted the screen for thrombin-inhibiting macrocycles in 384-well reaction plates. Briefly, each well contained a unique macrocycle (10 μM), 5 μL of thrombin (2 nM final conc.), and subsequently, 5 µL of a fluorogenic substrate to measure the residual thrombin activity and the extent of protease inhibition.
The assays were performed in 384-well plates using Tris buffer at pH 7.4 (100 mM Tris-Cl, 150 mM NaCl, 10 mM MgCl2, 1 mM CaCl2, 0.1% w/v BSA, 0.01% v/v Triton-X100, and 0.6% v/v DMSO) using thrombin at a final concentration of 2 nM and the fluorogenic substrate Z-Gly-Gly-Arg-AMC at a final concentration of 50 μM. Thrombin (5 μL, 6 nM) in the Tris-Cl buffer described above was added to each peptide using a BioTek MultiFlo microplate dispenser, and incubated for 10 min at room temperature. […] Data was collected and exported using the Tecan Infinite M200 Pro instrument software. […] For the negative controls (20 wells containing DMSO but no macrocycle), an average slope was calculated. The percent of thrombin inhibition was calculated by dividing the slopes and multiplying the results by 100.

For `COc1ccc(C(=O)NCCC[C@@H]2NC(=O)C3(CC3)CNC(=O)CCSSCCNC(=O)[C@H](Cc3c[nH]c4ccccc34)NC2=O)cn1` [B6-D2-W/10], the “percent residual thrombin activity” value was 93.1158%.
In the case of `O=C1CCSSCCNC(=O)[C@H](Cc2c[nH]c3ccccc23)NC(=O)[C@H](CCCNC(=O)c2c[nH]c(=O)[nH]c2=O)NC(=O)C2(CC2)CN1` [B6-D2-W/11], the “percent residual thrombin activity” value was 94.9215%.
In the case of `O=C1CCSSCCNC(=O)[C@H](Cc2c[nH]c3ccccc23)NC(=O)[C@H](CCCNC(=O)Cc2c[nH]c3ccccc23)NC(=O)C2(CC2)CN1` [B6-D2-W/12], the “percent residual thrombin activity” value was 93.2541%.
With `O=C1CCSSCCNC(=O)[C@H](Cc2c[nH]c3ccccc23)NC(=O)[C@H](CCCNC(=O)COc2ccccc2)NC(=O)C2(CC2)CN1` [B6-D2-W/13] the “percent residual thrombin activity” value was 95.6589%.
In the case of `CC(C)CC(=O)NCCC[C@@H]1NC(=O)C2(CC2)CNC(=O)CCSSCCNC(=O)[C@H](Cc2ccc(O)cc2)NC1=O` [B6-D2-Y/8], the “percent residual thrombin activity” value was 103.129%.
`O=C1CCSSCCNC(=O)[C@H](Cc2ccc(O)cc2)NC(=O)[C@H](CCCNC(=O)c2c[nH]c(=O)cn2)NC(=O)C2(CC2)CN1` [B6-D2-Y/9] was tested, and the “percent residual thrombin activity” value was 103.418%.
In the case of `COc1ccc(C(=O)NCCC[C@@H]2NC(=O)C3(CC3)CNC(=O)CCSSCCNC(=O)[C@H](Cc3ccc(O)cc3)NC2=O)cn1` [B6-D2-Y/10], the “percent residual thrombin activity” value was 102.307%.
In the case of `O=C1CCSSCCNC(=O)[C@H](Cc2ccc(O)cc2)NC(=O)[C@H](CCCNC(=O)c2c[nH]c(=O)[nH]c2=O)NC(=O)C2(CC2)CN1` [B6-D2-Y/11], the “percent residual thrombin activity” value was 102.523%.
With `O=C1CCSSCCNC(=O)[C@H](Cc2ccc(O)cc2)NC(=O)[C@H](CCCNC(=O)Cc2c[nH]c3ccccc23)NC(=O)C2(CC2)CN1` [B6-D2-Y/12] the “percent residual thrombin activity” value was 103.867%.
For `O=C1CCSSCCNC(=O)[C@H](Cc2ccc(O)cc2)NC(=O)[C@H](CCCNC(=O)COc2ccccc2)NC(=O)C2(CC2)CN1` [B6-D2-Y/13], the “percent residual thrombin activity” value was 105.408%.
With `O=C1CCSSCCNC(=O)[C@H](Cc2ccc(O)cc2)NC(=O)[C@H](CCCNC(=O)c2ccc(Cl)s2)NC(=O)C2(CC2)CN1` [B6-D2-Y/14] the “percent residual thrombin activity” value was 95.7216%.
`O=C1CCSSCCNC(=O)[C@H](CCCCNC(=O)c2ccccc2)NC(=O)[C@H](Cc2ccc(O)cc2)NC(=O)C2(CC2)CN1` [B6-Y-D1/1] was tested, and the “percent residual thrombin activity” value was 104.596%.
`O=C1CCSSCCNC(=O)[C@H](CCCCNC(=O)c2cnccn2)NC(=O)[C@H](Cc2ccc(O)cc2)NC(=O)C2(CC2)CN1` [B6-Y-D1/2] was tested, and the “percent residual thrombin activity” value was 106.813%.
In the case of `COc1ccc(C(=O)NCCCC[C@@H]2NC(=O)[C@H](Cc3ccc(O)cc3)NC(=O)C3(CC3)CNC(=O)CCSSCCNC2=O)cn1` [B6-Y-D1/10], the “percent residual thrombin activity” value was 104.034%.
With `O=C1CCSSCCNC(=O)[C@H](CCCCNC(=O)c2c[nH]c(=O)[nH]c2=O)NC(=O)[C@H](Cc2ccc(O)cc2)NC(=O)C2(CC2)CN1` [B6-Y-D1/11] the “percent residual thrombin activity” value was 105.574%.
In the case of `O=C1CCSSCCNC(=O)[C@H](CCCCNC(=O)Cc2c[nH]c3ccccc23)NC(=O)[C@H](Cc2ccc(O)cc2)NC(=O)C2(CC2)CN1` [B6-Y-D1/12], the “percent residual thrombin activity” value was 101.278%.
For `O=C1CCSSCCNC(=O)[C@H](CCCCNC(=O)COc2ccccc2)NC(=O)[C@H](Cc2ccc(O)cc2)NC(=O)C2(CC2)CN1` [B6-Y-D1/13], the “percent residual thrombin activity” value was 106.992%.
In the case of `Cc1nnsc1C(=O)NCCCC[C@@H]1NC(=O)[C@H](Cc2ccc(O)cc2)NC(=O)C2(CC2)CNC(=O)CCSSCCNC1=O` [B6-Y-D1/15], the “percent residual thrombin activity” value was 105.617%.
For `O=C1CCSSCCNC(=O)[C@H](CCCCNC(=O)c2ccco2)NC(=O)[C@H](Cc2ccc(O)cc2)NC(=O)C2(CC2)CN1` [B6-Y-D1/16], the “percent residual thrombin activity” value was 103.228%.
For `NCCCC[C@@H]1NC(=O)[C@H](Cc2ccc(O)cc2)NC(=O)C2(CC2)CNC(=O)CCSSCCNC1=O` [B6-Y-D1/-], the “percent residual thrombin activity” value was 104.679%.
For `O=C1CNC(=O)[C@@H]2CCCN2C(=O)[C@@H](NC(=O)c2ccc(Cl)s2)CSSCCNC(=O)[C@H](Cc2ccccc2)N1` [C B1 G F] ({2Thenoyl(5-Cl)}-CPGF-Cysteamide; disulfide 1-C), the “% thrombin activity, Original screen” value was 91.5% and the “% thrombin activity, Repeat screen” value was 96.1%.
With `O=C1CNC(=O)[C@H](Cc2ccc(O)cc2)NC(=O)[C@@H]2CCCN2C(=O)[C@@H](NC(=O)c2ccc(Cl)s2)CSSCCN1` [C B1 Y G] ({2Thenoyl(5-Cl)}-CPYG-Cysteamide; disulfide 1-C) the “% thrombin activity, Original screen” value was 98.5% and the “% thrombin activity, Repeat screen” value was 102.3%.
With `CC[C@H](C)[C@@H]1NC(=O)CNC(=O)CCNC(=O)[C@@H](NC(=O)c2ccc(Cl)s2)CSSCCNC1=O` [C B2 G I] the “% thrombin activity, Original screen” value was 110.0% and the “% thrombin activity, Repeat screen” value was 114.7%.
`O=C1CCNC(=O)[C@@H](NC(=O)c2ccc(Cl)s2)CSSCCNC(=O)[C@@H](CO)NC(=O)CN1` [C B2 G s] was tested, and the “% thrombin activity, Original screen” value was 112.4% and the “% thrombin activity, Repeat screen” value was 112.3%.
For `O=C1CNC(=O)c2ccc(cc2)CNC(=O)[C@@H](NC(=O)c2ccc(Cl)s2)CSSCCNC(=O)[C@H](Cc2cnc[nH]2)N1` [C B3 G H], the “% thrombin activity, Original screen” value was 103.1% and the “% thrombin activity, Repeat screen” value was 116.7%.
With `CC[C@H](C)[C@@H]1NC(=O)c2ccc(cc2)CNC(=O)[C@@H](NC(=O)c2ccc(Cl)s2)CSSCCNC(=O)CNC1=O` [C B3 I G] the “% thrombin activity, Original screen” value was 106.0% and the “% thrombin activity, Repeat screen” value was 113.6%.
`CC(C)C1NC(=O)C2CCCN(C2)C(=O)C(NC(=O)c2ccc(Cl)s2)CSSCCNC(=O)CNC1=O` (stereo not shown) [C B4 V G] was tested, and the “% thrombin activity, Original screen” value was 107.3% and the “% thrombin activity, Repeat screen” value was 115.5%.
In the case of `CC(C)C[C@@H]1NC(=O)C2(CC2)CNC(=O)CNC(=O)[C@@H](NC(=O)c2ccc(Cl)s2)CSSCCNC1=O` [C G B6 L], the “% thrombin activity, Original screen” value was 109.3% and the “% thrombin activity, Repeat screen” value was 114.8%.
With `O=C1CNC(=O)[C@@H](NC(=O)c2ccc(Cl)s2)CSSCCNC(=O)c2ccc(cc2)CNC(=O)[C@@H](CO)N1` [C G s B3] the “% thrombin activity, Original screen” value was 93.7% and the “% thrombin activity, Repeat screen” value was 99.7%.
`CC(C)C1NC(=O)C(NC(=O)c2ccc(Cl)s2)CSSCCNC(=O)c2cccc(c2)CNC(=O)CNC1=O` (stereo not shown) [C v G B5] was tested, and the “% thrombin activity, Original screen” value was 111.1% and the “% thrombin activity, Repeat screen” value was 111.8%.
With `CC1NC(=O)C2CCCN2C(=O)C(CCCCNC(=O)c2ccc(Cl)s2)NC(=O)CCSSCCNC1=O` (stereo not shown) [D1-B1-a/14] ([Mpa]K(2Thenoyl(5-Cl))PA-Cysteamide; disulfide 1-C; configuration not given here) the “percent residual thrombin activity” value was 96.3758%.
In the case of `O=C1CCSSCCNC(=O)[C@@H](Cc2ccc(O)cc2)NC(=O)CCNC(=O)[C@H](CCCCNC(=O)c2c[nH]c(=O)cn2)N1` [D1-B2-y/9], the “percent residual thrombin activity” value was 109.951%.
`COc1ccc(C(=O)NCCCC[C@@H]2NC(=O)CCSSCCNC(=O)[C@@H](Cc3ccc(O)cc3)NC(=O)CCNC2=O)cn1` [D1-B2-y/10] was tested, and the “percent residual thrombin activity” value was 108.421%.
With `O=C1CCSSCCNC(=O)[C@@H](Cc2ccc(O)cc2)NC(=O)CCNC(=O)[C@H](CCCCNC(=O)c2ccco2)N1` [D1-B2-y/16] the “percent residual thrombin activity” value was 114.281%.
For `CC(C)CC(=O)NCCCC[C@@H]1NC(=O)CCSSCCNC(=O)[C@H](CO)NC(=O)c2ccc(cc2)CNC1=O` [D1-B3-S/8], the “percent residual thrombin activity” value was 103.332%.
In the case of `O=C1CCSSCCNC(=O)[C@H](CO)NC(=O)c2ccc(cc2)CNC(=O)[C@H](CCCCNC(=O)c2c[nH]c(=O)[nH]c2=O)N1` [D1-B3-S/11], the “percent residual thrombin activity” value was 105.178%.
With `Cc1nnsc1C(=O)NCCCC[C@@H]1NC(=O)CCSSCCNC(=O)[C@H](CO)NC(=O)c2ccc(cc2)CNC1=O` [D1-B3-S/15] the “percent residual thrombin activity” value was 103.115%.
In the case of `CC(C)CC(=O)NCCCC[C@@H]1NC(=O)CCSSCCNC(=O)[C@@H](Cc2ccc(O)cc2)NC(=O)[C@H]2CCCN(C2)C1=O` [D1-B4-y/8], the “percent residual thrombin activity” value was 108.143%.
With `O=C1CCSSCCNC(=O)C(Cc2ccc(O)cc2)NC(=O)C2CCCN(C2)C(=O)C(CCCCNC(=O)c2c[nH]c(=O)[nH]c2=O)N1` (stereo not shown) [D1-B4-y/11] the “percent residual thrombin activity” value was 105.223%.
In the case of `O=C(Cc1c[nH]c2ccccc12)NCCCCC1NC(=O)CCSSCCNC(=O)C(Cc2ccc(O)cc2)NC(=O)C2CCCN(C2)C1=O` (stereo not shown) [D1-B4-y/12], the “percent residual thrombin activity” value was 103.012%.
In the case of `Cc1nnsc1C(=O)NCCCC[C@@H]1NC(=O)CCSSCCNC(=O)[C@@H](Cc2ccc(O)cc2)NC(=O)[C@H]2CCCN(C2)C1=O` [D1-B4-y/15], the “percent residual thrombin activity” value was 108.72%.
For `NCCCC[C@@H]1NC(=O)CCSSCCNC(=O)[C@H]2CCCN(C2)C(=O)[C@H](Cc2ccccc2)NC1=O` [D1-F-B4/-], the “percent residual thrombin activity” value was 110.104%.
